Data reported in US12043602B2, “Fendiline derivatives” (The Board of Regents of the University of Texas System, priority 2019, dated 2024).
Read-outs that look alike come from different tables or passages of the source.

Columns and labels:
mGFP-K-RASG12V = mGFP-K-RASG12V (Homo sapiens (Human), UniProt P01116, G12V); assay: K-Ras mislocalization assay (confocal microscopy, Manders coefficient); assay type: cell-based; design: key to Emax: Manders coefficient: fraction of mCherry-CAAX co-localizing with GFP-K-Ras; details: for IC50 / Emax / EC50: MDCK cells; for IC50: 48 h treatment, read-out: IC50 (μM), KRASG12V mislocalization; for Emax: maximal effect, Manders coefficient; for Emax / EC50: 48 h; for EC50: batch 4 compounds, title calls it IC50, read-out: EC50
Description: Madine Darby Canine Kidney epithelial cells (MDCK) stably co-expressing mGFP-tagged full length oncogenic mutant K-Ras (GFP—K-RASG12V) or mGFP-LactC2 (peptide probe for phosphatidylserine) and mCherry-tagged to the amino acids 179-189 of H-RasC181S, C184S (mCherry-CAAX, localizes primarily to endomembranes) were grown in DMEM-high glucose/sodium pyruvate/10% FBS. The medium was supplemented with 1× Penicillin/Streptomycin for fluorescence microscopy assays, to avoid any microbial contamination from the test compounds added. KLE and Hec50 cells were maintained in DMEM-F-12 medium supplemented with 10% FBS. Hec-1A and Hec-1B cells were grown in McCoy's 5a medium supplemented with 10% FBS. ESS-1 cells were grown in RPMI 1640 medium supplemented with 20% FBS. MPanc96 cells were grown in DMEM supplemented with 10% FBS, MiaPaCa-2 cells in DMEM supplemented with 10% FBS and 2.5% horse serum and all other cell lines were grown in RPMI 1640 supplemented with 10% FBS. All cancer cell media were supplemented with ×Penicillin/Streptomycin. All cell lines were grown at 37° C. with 5% CO2.
MDCK co-expressing GFP—K-RASG12V or LactC2 and mCherry-CAAX were grown on coverslips, treated with 0.1% vehicle (DMSO) or various concentrations of drugs for 48 h, and fixed with 4% paraformaldehyde. The coverslips were mounted in mowiol and imaged by confocal microscopy (Nikon A1) using a 60× objective. Using ImageJ software v1.42q, images were converted to 8-bit, and a threshold to a control pixel of each image was set. As a measure of K-Ras/LactC2 mislocalization, the fraction of mCherry-CAAX co-localizing with mGFP-K-RASG12V was calculated using a Manders coefficient plugin downloaded from Wright Cell Image Facility. The fraction of mCherry-CAAX co-localizing with mGFP-RASG12V (Mander's coefficient) is proportional to K-Ras mislocalization.

[1] = tested on: MDCK cells co-expressing GFP-K-RASG12V and mCherry-CAAX; assay: Cytotoxicity in mislocalization screen (death of all cells in well); details: drug caused death of all cells in well at 30 μM

| SMILES | IC50 (mGFP-K-RASG12V) | Emax (mGFP-K-RASG12V) | Cytotoxic at 30 μM [1] | also measured |
| --- | --- | --- | --- | --- |
| COc1ccc([C@@H](C)N(CC=C(c2ccccc2)c2ccccc2)CCN2CCN(CC(C)C)CC2)cc1 [NY0372, (R)-N-(2-(4-isobutylpiperazin-1-yl)ethyl)-N-(1-(4-methoxyphenyl)ethyl)-3,3-diphenylprop-2-en-1-amine] | 16.4 µM | 0.868 | No | – |
| COc1ccc([C@@H](C)N(CC=C(c2ccccc2)c2ccccc2)CCN2CCOCC2)cc1 [NY316, (R)-N-(1-(4-methoxyphenyl)ethyl)-N-(2-morpholinoethyl)-3,3-diphenylprop-2-en-1-amine] | 4.4 µM | 0.86 ± 0.02 | No | – |
| COc1ccc([C@@H](C)N(CC=C(c2ccccc2)c2ccccc2)C(=O)CN2CCCC2)cc1 [PW124, (R)-N-(3,3-diphenylallyl)-N-(1-(4-methoxyphenyl)ethyl)-2-(pyrrolidin-1-yl)acetamide] | 0.553 µM | 0.452 | Yes | – |
| CN1CCN(CCN(CC=C(c2ccccc2)c2ccccc2)[C@@H]2CCc3ccccc32)CC1 [NY0369b, (R)-N-(3,3-diphenylallyl)-N-(2-(4-methylpiperazin-1-yl)ethyl)-2,3-dihydro-1H-inden-1-amine] | 90.1 µM | 0.866 | Yes | – |
| COc1ccc([C@@H](C)N(CC=C(c2ccccc2)c2ccccc2)CCN2CCNC(=O)C2)cc1 [NY325, (R)-4-(2-((3,3-diphenylallyl)(1-(4-methoxyphenyl)ethyl)amino)ethyl) piperazin-2-one] | 7.7 µM | 0.81 ± 0.02 | No | fold potency loss compared to 12e (mGFP-K-RASG12V; versus 12e): 6 fold |
| COc1ccc([C@@H](C)N(CC=C(c2ccccc2)c2ccccc2)CC(=O)N2CCc3ccccc3C2)cc1 [NY0233, (R)-1-(3,4-dihydroisoquinolin-2(1H)-yl)-2-((3,3-diphenylallyl)(1-(4-methoxyphenyl)ethyl)amino)ethanone] | 3.56 µM | 0.522 | No | – |
| C[C@H](c1ccc(F)cc1)N(CC=C(c1ccccc1)c1ccccc1)CCn1cc(CCO)nn1 [PW303, (R)-2-(1-(2-((3,3-diphenylallyl)(1-(4-fluorophenyl)ethyl)amino)ethyl)-1H-1,2,3-triazol-4-yl)ethan-1-ol] | 4.13 µM | 0.675 | Yes | – |
| CCNC(=O)N(CC=C(c1ccccc1)c1ccccc1)[C@H](C)c1ccc(OC)cc1 [NY0504, (R)-1-(3,3-diphenylallyl)-3-ethyl-1-(1-(4-methoxyphenyl)ethyl)urea] | – | 0.845 | No | EC50 (mGFP-K-RASG12V): 0.91 µM |
| C[C@H](c1ccc(F)cc1)N(CC=C(c1ccccc1)c1ccccc1)CCn1ccc2cccnc21 [PW297, (R)-N-(2-(1H-pyrrolo[2,3-b]pyridin-1-yl)ethyl)-N-(1-(4-fluorophenyl)ethyl)-3,3-diphenylprop-2-en-1-amine] | 2.27 µM | 0.685 | No | – |
| COc1ccc(C(=CCN(CCN2CCCC2)[C@H](C)c2ccc(F)cc2)c2ccc(OC)cc2)cc1 [PW356, (R)-N-(1-(4-Fluorophenyl)ethyl)-3,3-bis(4-methoxyphenyl)-N-(2-(pyrrolidin-1-yl)ethyl)prop-2-en-1-amine] | 2.44 µM | 0.641 | Yes at 10 uM | – |
| Brc1cccc(CN(CC=C(c2ccccc2)c2ccccc2)CCN2CCCC2)n1 [PW295, N-((6-bromopyridin-2-yl)methyl)-3,3-diphenyl-N-(2-(pyrrolidin-1-yl)ethyl)prop-2-en-1-amine] | 2.82 µM | 0.801 | Yes | – |
| COc1ccc([C@@H](C)N(CC=C(c2ccccc2)c2ccccc2)CCCN2CCCC2)cc1 [NY0502, (R)-N-(1-(4-methoxyphenyl)ethyl)-3,3-diphenyl-N-(3-(pyrrolidin-1-yl)propyl)prop-2-en-1-amine] | – | 0.878 | Yes | EC50 (mGFP-K-RASG12V): 1.78 µM |
| COc1ccc([C@@H](C)N(CC=C(c2ccccc2)c2ccccc2)CCCCO)cc1 [NY0448, (R)-4-((3,3-diphenylallyl)(1-(4-methoxyphenyl)ethyl)amino)butan-1-ol] | 12.7 µM | 0.777 | Yes | – |
| C[C@@H](NCC(=O)N1c2ccccc2CCc2ccccc21)c1ccccc1 [NY0584, (R)-1-(10,11-dihydro-5H-dibenzo[b,f]azepin-5-yl)-2-((1-phenylethyl)amino)ethan-1-one] | – | 0.697 | No | EC50 (mGFP-K-RASG12V): 6.94 µM |
| COC(=O)[C@H](CC(C)C)NC(=O)[C@H](NCC=C(c1ccccc1)c1ccccc1)c1ccccc1 [NY0566, methyl ((R)-2-((3,3-diphenylallyl)amino)-2-phenylacetyl)-L-leucinate] | – | 0.718 | No | EC50 (mGFP-K-RASG12V): 5.93 µM |
| C=CC(=O)N(CC=C(c1ccccc1)c1ccccc1)[C@H](C)c1ccc(OC)cc1 [NY0235, (R)-N-(3,3-diphenylallyl)-N-(1-(4-methoxyphenyl)ethyl)acrylamide] | 1.21 µM | 0.59 | No | – |
| CN1CCN(C(=O)[C@H](NCC=C(c2ccccc2)c2ccccc2)c2ccccc2)CC1 [NY0557, (R)-2-((3,3-diphenylallyl)amino)-1-(4-methylpiperazin-1-yl)-2-phenylethan-1-one] | – | 0.732 | No | – |
| C[C@H](c1ccc(F)cc1)N(CC=C(c1ccccc1)c1ccccc1)CCNc1cc(-c2ccc(F)cc2)n[nH]1 [PW2100, (R)-N^1-(3,3-diphenylallyl)-N^2-(3-(4-fluorophenyl)-1H-pyrazol-5-yl)-N^1-(1-(4-fluorophenyl)ethyl)ethane-1,2-diamine] | – | 0.414 | No | – |
| COc1ccccc1[C@@H](C)N(CC=C(c1ccccc1)c1ccccc1)CCN1CCN(C)CC1 [NY0366, (R)-N-(1-(2-methoxyphenyl)ethyl)-N-(2-(4-methylpiperazin-1-yl)ethyl)-3,3-diphenylprop-2-en-1-amine] | 3.81 µM | 0.861 | Yes | IC50 (mGFP-K-RASG12V; listed as 15b): 3.8 µM; Emax (mGFP-K-RASG12V; listed as 15b): 0.86 ± 0.01 |
| C(CN1CCN(c2ccccc2)CC1)=C(c1ccccc1)c1ccccc1 [NY307, 1-(3,3-diphenylallyl)-4-phenylpiperazine] | 4.2 µM | 0.858 | No | – |
| COC(=O)c1cn(CCN(CC=C(c2ccccc2)c2ccccc2)[C@H](C)c2ccc(F)cc2)nn1 [PW307, methyl (R)-1-(2-((3,3-diphenylallyl)(1-(4-fluorophenyl)ethyl)amino)ethyl)-1H-1,2,3-triazole-4-carboxylate] | – | 0.628 | No | – |
| COc1ccc([C@@H](C)N(CC=C(c2ccccc2)c2ccccc2)CCN2CCN(S(C)(=O)=O)CC2)cc1 [NY351, (R)-N-(1-(4-methoxyphenyl)ethyl)-N-(2-(4-(methylsulfonyl)piperazin-1-yl)ethyl)-3,3-diphenylprop-2-en-1-amine] | 1.11 µM | 0.851 | No | – |
| COc1ccc([C@@H](C)N(CC=C(c2ccccc2)c2ccccc2)C(=O)NC2CCCCC2)cc1 [NY0521, (R)-3-cyclohexyl-1-(3,3-diphenylallyl)-1-(1-(4-methoxyphenyl)ethyl)urea] | – | 0.816 | No | – |
| COc1ccc([C@@H](C)N(CC=C(c2ccccc2)c2ccccc2)CCCCN2CCN(C)CC2)cc1 [NY0449, (R)-N-(3,3-diphenylallyl)-N-(1-(4-methoxyphenyl)ethyl)-4-(4-methylpiperazin-1-yl)butan-1-amine] | – | 0.810 | Yes | KRAS PM localization inhibition activity (in words) (mGFP-K-RASG12V): significantly decreased potency; Emax (mGFP-K-RASG12V; listed as 25): 0.81 ± 0.03 |
| COc1ccc([C@@H](C)N(C/C=C/c2ccccc2)CCN2CCN(C)CC2)cc1 [NY346, (R,E)-N-(1-(4-methoxyphenyl)ethyl)-N-(2-(4-methylpiperazin-1-yl)ethyl)-3-phenylprop-2-en-1-amine] | 14.8 µM | 0.84 ± 0.01 | No | KRAS PM localization inhibition activity (in words) (mGFP-K-RASG12V): complete loss of in vitro activity |
